What is called IC50 is the concentration needed to halve the response being measured. Read a high IC50 as weaker potency.

Here are results for 31 molecules from US20240158355A1, “BET SUBFAMILY INHIBITORS AND METHODS USING SAME” (Baylor College of Medicine, priority 2021, published 2024).

The target in one series is BRDT-BD2 (Homo sapiens (Human), UniProt Q58F21). As to the kind of experiment: AlphaScreen bromodomain proximity assay (competition with biotinylated (+)-JQ1), BRDT-BD2. It is filed as binding.
The next series has as its target BRDT-BD1 (Homo sapiens (Human), UniProt Q58F21). In words: AlphaScreen bromodomain proximity assay (competition with biotinylated (+)-JQ1), BRDT-BD1. It is filed as binding. The settings on record: NE: no effect at 10 μM.
The target of another series is His-BRDT-BD2 (Homo sapiens (Human), UniProt Q58F21). The settings on record: 0 = theoretically present in the library but not detected in the sequencing data.
A short description of series [1]: Metabolic stability assay in mouse liver microsomes. The conditions noted are these: in words. It is filed as in vitro ADME. Here is the method:
Compounds 3-10, 15, 17, and 20-22 (2.0 μM) were incubated in the mouse or human liver microsomes (0.5 mg protein/mL) at 37° C. […] The reaction mixtures were centrifuged at rcf 15,000 for 15 min. […] The column temperature was maintained at 40° C. […] Q Exactive MS was operated in positive or negative mode with electrospray ionization.
A general note: Microsomes from liver hold many membrane-bound enzymes, among them those of drug oxidation.

As for `CNC(=O)c1ccc(C(=O)Nc2cc(NC(=O)c3ccc4c(c3)c(-c3cc5ccccc5n3C)nn4C)ccc2C)cc1` [compound 8, N^1-Methyl-N^4-(2-methyl-5-(1-methyl-3-(1-methyl-1H-indol-2-yl)-1H-indazole-5-carboxamido)phenyl)terephthalamide], the figures for the IC50 on BRDT-BD2 and at BRDT-BD1 were 13 nM and over 10000 nM, respectively. For the same molecule, on His-BRDT-BD2, the “Count (observed molecule count in the DEC-Tec screen against BRDT-BD2)” value was 846.
As for `CNC(=O)c1ccc(C(=O)Nc2cc(NC(=O)c3ccc4c(c3)c(-c3ccc(OC)cc3)nn4C)ccc2C)cc1` [compound 11], the figures for the concentration for half-maximal inhibition (IC50) at BRDT-BD2 and on BRDT-BD1 were 521 nM and over 10000 nM, respectively.
In the same order, the values of `CNC(=O)c1ccc(C(=O)Nc2cc(NC(=O)c3ccc4c(c3)c(-c3cnc(N)nc3)nn4C)ccc2C)cc1` [compound 13, N^1-(5-(3-(2-Aminopyrimidin-5-yl)-1-methyl-1H-indazole-5-carboxamido)-2-methylphenyl)-N^4-methylterephthalamide] are 139 nM and over 10000 nM.
For the molecule `CNC(=O)c1ccc(C(=O)Nc2cc(NC(=O)c3ccc4c(c3)c(-c3cnc(N)cc3C)nn4C)ccc2C)cc1` [compound 15], on BRDT-BD2, the IC50 was determined as 22 nM. Also, the mouse microsomal stability result in series [1] is recorded as “high mouse microsomal stability”.
Turning to `CC(=O)Nc1cc(NC(=O)c2ccc3c(c2)c(-c2ccc(N)nc2)nn3C)ccc1C` [compound 17, N-(3-Acetamido-4-methylphenyl)-3-(6-aminopyridin-3-yl)-1-methyl-1H-indazole-5-carboxamide], the half-inhibitory concentration (IC50) at BRDT-BD2 was 47 nM; at BRDT-BD1, over 10000 nM. For the same molecule, the mouse microsomal stability entry in series [1] was “high mouse microsomal stability”.
Consider `CCn1nc(-c2ccc(N)nc2)c2cc(C(=O)Nc3ccc(C)c(NC(C)=O)c3)ccc21` [compound 18, N-(3-Acetamido-4-methylphenyl)-3-(6-aminopyridin-3-yl)-1-ethyl-1H-indazole-5-carboxamide], for which the IC50 at BRDT-BD2 was 79 nM; on BRDT-BD1 it was over 10000 nM.
Regarding `CC(=O)Nc1cc(NC(=O)c2ccc3c(c2)c(-c2ccc(N)nc2)nn3C(C)C)ccc1C` [compound 19, N-(3-Acetamido-4-methylphenyl)-3-(6-aminopyridin-3-yl)-1-isopropyl-1H-indazole-5-carboxamide], the IC50 was 253 nM on BRDT-BD2 and over 10000 nM on BRDT-BD1.
For the molecule `CC(=O)Nc1cccc(NC(=O)c2ccc3c(c2)c(-c2ccc(N)cc2C)nn3C)c1` [compound 21, N-(3-Acetamidophenyl)-3-(4-amino-2-methylphenyl)-1-methyl-1H-indazole-5-carboxamide], the IC50 is 14 nM on BRDT-BD2 and over 10000 nM on BRDT-BD1. In series [1], the mouse microsomal stability entry is reported as “high mouse microsomal stability”.
`CNC(=O)c1cc(NC(=O)c2ccc3c(c2)c(-c2ccc(N)cc2C)nn3C)ccc1C` [compound 22, 3-(4-Amino-2-methylphenyl)-1-methyl-N-(4-methyl-3-(methylcarbamoyl)phenyl)-1H-indazole-5-carboxamide]: the values for the IC50 on BRDT-BD2 and at BRDT-BD1 were 18 nM and over 10000 nM, respectively. Further, the mouse microsomal stability result in series [1] is on record as “high mouse microsomal stability”.
With `COc1ccc(NC(=O)c2ccc3c(c2)c(-c2ccc(N)cc2C)nn3C)cc1NC(=O)c1ccccc1` [compound 23, 3-(4-Amino-2-methylphenyl)-N-(3-benzamido-4-methoxyphenyl)-1-methyl-1H-indazole-5-carboxamide], the IC50 on BRDT-BD2 is 35 nM; at BRDT-BD1, over 10000 nM.
The like results for `COc1ccc(NC(=O)c2ccc3c(c2)c(-c2ccc(N)cc2C)nn3C)cc1` [compound 24, 3-(4-Amino-2-methylphenyl)-N-(4-methoxyphenyl)-1-methyl-1H-indazole-5-carboxamide] were, in that order, 54 nM and over 10000 nM.
Regarding `Cc1cc(N)ccc1-c1nn(C)c2ccc(C(=O)Nc3ccccc3)cc12` [compound 25, 3-(4-Amino-2-methylphenyl)-1-methyl-N-phenyl-1H-indazole-5-carboxamide], the IC50 on BRDT-BD2 is 90 nM; on BRDT-BD1 it was over 10000 nM.
For the molecule `COc1ccc(N(C)C(=O)c2ccc3c(c2)c(-c2ccc(N)cc2C)nn3C)cc1` [compound 26, 3-(4-Amino-2-methylphenyl)-N-(4-methoxyphenyl)-N,1-dimethyl-1H-indazole-5-carboxamide], the IC50 on BRDT-BD2 is over 1000 nM; on BRDT-BD1 it was over 10000 nM.
Consider `COc1ccc(NC(=O)c2ccc3nn(C)c(-c4ccc(N)cc4C)c3c2)cc1` [compound 27, 3-(4-Amino-2-methylphenyl)-N-(4-methoxyphenyl)-2-methyl-2H-indazole-5-carboxamide], for which the IC50 on BRDT-BD2 is 17200 nM; on BRDT-BD1, over 10000 nM.
In the same order, the values of `CNC(=O)c1ccc2c(c1)c(-c1ccc(N)cc1C)nn2C` [compound 55, 3-(4-Amino-2-methylphenyl)-N,1-dimethyl-1H-indazole-5-carboxamide] are 988 nM and over 10000 nM.
Molecule `Cc1cc(N)ccc1-c1nn(C)c2ccc(C(=O)Nc3ccc(Cl)cc3)cc12` [compound 64, 3-(4-Amino-2-methylphenyl)-N-(4-chlorophenyl)-1-methyl-1H-indazole-5-carboxamide] displayed a concentration for half-maximal inhibition (IC50) on BRDT-BD2 of 209 nM.
Take `Cc1cc(N)ccc1-c1nn(C)c2ccc(C(=O)Nc3ccc(OCC4CC4)cc3)cc12` [compound 65, 3-(4-Amino-2-methylphenyl)-N-(4-(cyclopropylmethoxy)phenyl)-1-methyl-1H-indazole-5-carboxamide]: the half-maximal inhibitory concentration (IC50) was 98 nM on BRDT-BD2 and over 10000 nM on BRDT-BD1.
Regarding `COc1ccc(NC(=O)c2ccc3c(c2)c(-c2ccc(NC(C)=O)cc2C)nn3C)cc1` [compound 66, 3-(4-Acetamido-2-methylphenyl)-N-(4-methoxyphenyl)-1-methyl-1H-indazole-5-carboxamide], the half-inhibitory concentration (IC50) at BRDT-BD2 is over 10000 nM.
As to `CNC(=O)c1ccc2c(c1)c(-c1cc3ccccc3n1C)nn2C` [compound 67, N,1-Dimethyl-3-(1-methyl-1H-indol-2-yl)-1H-indazole-5-carboxamide], the IC50 at BRDT-BD2 was 261 nM; at BRDT-BD1, over 10000 nM.
On to `COc1ccc(NC(=O)c2ccc3c(c2)c(-c2cc4ccccc4n2C)nn3C)cc1Br` [compound 68, N-(3-Bromo-4-methoxyphenyl)-1-methyl-3-(1-methyl-1H-indol-2-yl)-1H-indazole-5-carboxamide], for which, at BRDT-BD2, the half-maximal inhibitory concentration (IC50) turned out to be 274 nM. This counts as sub-micromolar.
Take `COc1ccc(NC(=O)c2ccc3c(c2)c(-c2cc4ccccc4n2C)nn3C)cc1I` [compound 69, N-(3-Iodo-4-methoxyphenyl)-1-methyl-3-(1-methyl-1H-indol-2-yl)-1H-indazole-5-carboxamide]: on BRDT-BD2, the IC50 was determined as 502 nM. Compared with the last molecule, the IC50 is about 1.8-fold higher.
The molecule `COc1ccc(NC(=O)c2ccc3c(c2)c(-c2cc4ccccc4n2C)nn3C)cc1C(F)(F)F` [compound 70, N-(4-Methoxy-3-(trifluoromethyl)phenyl)-1-methyl-3-(1-methyl-1H-indol-2-yl)-1H-indazole-5-carboxamide] displayed an IC50 at BRDT-BD2 of 626 nM.
Still for that read-out and setting: as for `COc1ccc(NC(=O)c2ccc3c(c2)c(-c2cc4ccccc4n2C)nn3C)cc1C#N` [compound 71, N-(3-Cyano-4-methoxyphenyl)-1-methyl-3-(1-methyl-1H-indol-2-yl)-1H-indazole-5-carboxamide], the figure is 168 nM.
The molecule `COc1ccc(NC(=O)c2ccc3c(c2)c(-c2cc4ccccc4n2C)nn3C)cc1-c1ccccc1` [compound 72, N-(6-Methoxy-[1,1′-biphenyl]-3-yl)-1-methyl-3-(1-methyl-1H-indol-2-yl)-1H-indazole-5-carboxamide] registered an IC50 at BRDT-BD2 of 2390 nM.
In turn, `COc1ccc(NC(=O)c2ccc3c(c2)c(-c2cc4ccccc4n2C)nn3C)cc1S(N)(=O)=O` [compound 73, N-(4-Methoxy-3-sulfamoylphenyl)-1-methyl-3-(1-methyl-1H-indol-2-yl)-1H-indazole-5-carboxamide] had an IC50 at BRDT-BD2 of 111 nM.
`COc1ccc(NC(=O)c2ccc3c(c2)c(-c2cc4ccccc4n2C)nn3C)cc1NC(C)=O` [compound 74, N-(3-Acetamido-4-methoxyphenyl)-1-methyl-3-(1-methyl-1H-indol-2-yl)-1H-indazole-5-carboxamide]: at BRDT-BD2, the IC50 was determined as 32 nM.
At BRDT-BD2, `COc1ccc(NC(=O)c2ccc3c(c2)c(-c2cc4ccccc4n2C)nn3C)c(C(N)=O)c1` [compound 75, N-(2-Carbamoyl-4-methoxyphenyl)-1-methyl-3-(1-methyl-1H-indol-2-yl)-1H-indazole-5-carboxamide] came in with an IC50 of 4370 nM.
With `Cc1cc(N)ccc1-c1nn(C)c2ccc(-c3cnc(C(F)(F)F)nc3)cc12` [compound 77, 3-Methyl-4-(1-methyl-5-(2-(trifluoromethyl)pyrimidin-5-yl)-1H-indazol-3-yl)aniline], the 50% inhibitory concentration (IC50) was 3630 nM on BRDT-BD2 and over 10000 nM at BRDT-BD1.
In the same order, the values of `Cc1cc(N)ccc1-c1nn(C)c2ccc(-c3cccnc3)cc12` [compound 78, 3-Methyl-4-(1-methyl-5-(pyridin-3-yl)-1H-indazol-3-yl)aniline] are over 10000 nM and 2440 nM.
Turning to `Cc1ccc(-c2ccc3c(c2)c(-c2ccc(N)cc2C)nn3C)cn1` [compound 79, 3-Methyl-4-(1-methyl-5-(6-methylpyridin-3-yl)-1H-indazol-3-yl)aniline], the 50% inhibitory concentration (IC50) at BRDT-BD2 was over 10000 nM; on BRDT-BD1, 3210 nM.
`COc1ccc(-c2ccc3c(c2)c(-c2ccc(N)cc2C)nn3C)cn1` [compound 80, 4-(5-(6-Methoxypyridin-3-yl)-1-methyl-1H-indazol-3-yl)-3-methylaniline]: the half-maximal inhibitory concentration (IC50) at BRDT-BD2 is over 10000 nM; at BRDT-BD1, 1020 nM.
